The record followed here is US20220196635A1, “Fibrosis Assay” (Georgia Tech Research Corporation, priority 2020, published 2022).

In test [1] the test system is NHLF cells and diseased IPF cells (primary human lung fibroblasts) in fibrin scaffold. As to the kind of experiment: Microscale cell-mediated fibrinolysis assay (ATPS-printed fibroblast-laden fibrin scaffolds, brightfield pixel intensity). It is filed as cell-based. The note with it: NHLF cells. Here is the method: A stock solution of DEX (20% w/w dextran T500; Sigma) was prepared in phosphate buffered saline (PBS) on a rocker overnight. A stock solution of PEG (6% w/w, 35 k MW; Sigma) was prepared in fully supplemented culture media with 10% deionized water to balance osmolality. Both stock solutions were passed through a 0.22 um sterilizing syringe filter before storage. PEG working solutions were stored for up to 2 weeks at 4° C. Thrombin (Human Alpha Thrombin; Enzyme Research Labs) was also added to the PEG solution at a concentration of 0.1 U/mL immediately preceding experiments. Fibrinogen-DEX solutions were prepared by diluting fibrinogen stock solution (human fibrinogen 3; Enzyme Research Labs) to a final concentration of 4 mg/mL in a sterile solution of 4% 10×DMEM, 15% DEX stock solution (to a final concentration of 3% dextran), and 50% cell suspension in growth media. For all experiments excluding cell concentration evaluation, the cell suspension was diluted for 1000 cells per microliter in the final fibrinogen-DEX solution.
Normal human lung fibroblasts (NHLF lot #0000580583; […] Cells were passaged at 80-90% confluence and were sub-cultured in 1:3 ratios by trypsinization. When at the desired confluence, cells were washed with PBS and 0.05% trypsin solution was added to the flask. Cells were incubated for 2 min, diluted with fibroblast growth media, and then harvested and centrifuged (200× g, 5 min) in a conical tube. The supernatant was aspirated and the cell pellet was re-suspended in serum-free culture media. When used in fibrin degradation experiments, cells were re-suspended at 2× the final desired concentration (1000 cells/ul unless otherwise indicated). All experiments were conducted with cells at or below passage 12. In all experiments, media was changed every 48 hours and any media additives (plasminogen, TGF-β1, drugs, etc.) were included.
Working solutions of PEG with 0.1 U/mL of thrombin were warmed to 37° C. and pipetted into a 96-well plate. For production of droplets, fibrinogen-DEX solutions with cell suspension were maintained at 37° C. and pipetted directly into the PEG-thrombin media using either a manual pipette or a semi-automated 96-channel pipette (Viaflo-96; Integra). All assays utilized a volume of 1 μl unless otherwise noted. Following dispensing of the DEX phase, the plates were placed in an incubator at 37° C. for 30 min to allow the thrombin to enzymatically crosslink the fibrinogen into a fibrin matrix (FIG. 1A). The PEG-enriched media was then washed four times by removing, then replacing half of the media with PEG-free media. When applicable, the final media addition was supplemented with stimuli as detailed in Example 5 below. For the duration of each experiment, assay plates were imaged every 2 hours at 4× with an automated cell culture monitoring system (Incucyte S3; Essen Biosystems). After one day of culture, plasminogen (50 μg/mL) (Human Glu-Plasminogen; Enzyme Research Labs) was added as a 10× concentrated solution to each well in order to initiate assay degradation (FIG. 1B), unless otherwise noted for specific conditions. Fresh plasminogen was included with each subsequent media addition. Positive controls with active plasmin (1 U/ml) (Human Plasmin; Enzyme Research Labs) and negative controls without plasminogen were included in each experiment. As cells activated plasminogen, the fibrin scaffold progressively degraded as illustrated in FIG. 1C.
After each experiment, brightfield images for every time point were downloaded in jpeg format from the automated cell culture monitoring system. Python's OpenCV library was implemented for the masking approach illustrated in FIG. 2A. First, a threshold was set at 50% of the maximum intensity (128 for 8-bit integer pixel values) in order to isolate the darker pixels of semi-opaque fibrin hydrogel from the background of the image. A closing morphological filter with a 25×25 kernel was then applied to each mask in order to remove noise. […]

Test [2] deals with normal human lung fibroblasts (NHLF). Description: Picrosirius red histology of contracted cell-ECM spheroids (mean fluorescence intensity). It is filed as cell-based. The note with it: different TGF-β1 conditions and control, 12 days of culture. The method, then:
Contracted cell-ECM spheroids were harvested after 9-12 days of culture. These structures were prepared for histology, stained, and imaged as previously described for cultured spheroids. Briefly, the spheroids were washed with PBS and fixed in 4% paraformaldehyde (Alfa Aesar) for 1 hour at room temperature. The structures were stained with 0.5% methylene blue solution in PBS for 10 minutes at room temperature to aid in visualization during histology. Samples were placed in a cryomold containing optimal cutting temperature (OCT) compound, and flash frozen in cooled isopentane. 10 um sections were obtained using a CryoStar NX70 cryostat (Thermo Fisher Scientific).
Upon warming to room temperature, the sections were washed with PBS, permeabilized with 0.2% Triton-X 100, and blocked for 1 hour at room temperature with 4% bovine serum albumin (BSA) (Millipore Sigma). Sections were stained for 30 min at room temperature with Sirius red (0.1% of Sirius red in saturated aqueous picric acid), as previously described for collagen bundle staining. The samples were then washed with PBS, stained with DAPI for 15 minutes at room temperature, and coverslipped. […] Fluorescence was detected using Texas Red channel settings as previously described. Mean fluorescence intensity was quantified in ImageJ as the average pixel intensity within the sections.

As to “TGF-β1: Human Recombinant TGF-β1 (Peprotech), pro-fibrotic, anti-fibrinolytic stimulus”, the “maximum slope of fibrin degradation” value in test [1] (higher concentrations of TGF-β1) is “no significant changes in slope”. Further, the “50% degradation time / delay before fibrinolysis” value in test [1] (various concentrations of TGF-β1) was “longer time delays before fibrinolysis”. Also, in test [2], the “mean fluorescence intensity (MFI) of picrosirius red stained sections, collagen organization” value is on record as “relative consistency in organization of collagen networks”.
